In patent US20250041380A1, “R[…] FOR SARS-COV2 DISEASE” (priority 2021, published 2025):
Like-named read-outs stand apart in the source and are kept apart here.

Columns and labels:
[1] = system: Immune cells (THP-1); format: cell-based, Human
[2] = system: Lung cells (A549); format: cell-based, Human

CCN(CCO)CCCC(C)Nc1ccnc2cc(Cl)ccc12 (centres unmarked) [Hydroxychloroquine sulphate]
Inhibition of IL-6 ([1]; 0.1 µM): 90.7% | Inhibition of IL-8 ([1]; 0.1 µM): 23.2% | Inhibition of IL-6 ([1]; 1 µM): 83.9% | Inhibition of IL-8 ([1]; 1 µM): 36.8% | Inhibition of IL-6 ([1]; 5 µM): 94.2% | Inhibition of IL-8 ([1]; 5 µM): 53.4% | Inhibition of IL-6 ([1]; 10 µM): 84.5% | Inhibition of IL-8 ([1]; 10 µM): 53.5% | Inhibition of IL-6 ([1]; 20 µM): 100.0% | Inhibition of IL-8 ([1]; 20 µM): 36.1% | Inhibition of IL-6 ([2]; 0.1 µM): 34.7% | Inhibition of IL-8 ([2]; 0.1 µM): 54.4% | Inhibition of IL-6 ([2]; 1 µM): 53.4% | Inhibition of IL-8 ([2]; 1 µM): 40.8% | Inhibition of IL-6 ([2]; 5 µM): 66.5% | Inhibition of IL-8 ([2]; 5 µM): 56.7% | Inhibition of IL-6 ([2]; 10 µM): 60.7% | Inhibition of IL-8 ([2]; 10 µM): 44.0% | Inhibition of IL-6 ([2]; 20 µM): 71.4% | Inhibition of IL-8 ([2]; 20 µM): 65.0%
